According to PMC6803848, “Exploring New Structural Features of the 18β-Glycyrrhetinic Acid Scaffold for the Inhibition of Anaplastic Lymphoma Kinase” (Molecules, 2019):

How the values were obtained:
HT29 = test: MTT antiproliferative assay, HT29 cells; format: cell-based; conditions: Homo sapiens, HT-29, 48 h, MTT, read-out: Antiproliferative activity (growth inhibition, %); for inhibition at 2 µg/mL: HT29, 2 μg/mL; for inhibition at 20 µg/mL: HT29, 20 μg/mL
Description: (§1) All the cells were seeded in 96-well plates and incubated with 5% CO2 at 37 °C for 24 h. Next, the compounds and the reference were dissolved into the culture medium. The final concentration of DMSO in the medium was less than 0.5%. After the cells were treated with compounds for 48 h, the supernatant was removed and 5 mg/mL of a fresh prepared solution of MTT was added to each well and incubated with the cells at 37 °C for another 4 h. The medium was removed, and 100 μL of testing solution was added to each well. After an overnight incubation with 5% CO2 at 37 °C, the absorbance was measured at 490/630 nm by the microplate reader. The IC50 was calculated using GraphPad Prism version 6.0 software (San Diego, CA, USA) from the non-linear curve.

A549 = test: MTT antiproliferative assay, A549 cells; format: cell-based; conditions: Homo sapiens, 48 h, MTT, read-out: Antiproliferative activity (growth inhibition, %); for inhibition at 2 µg/mL: A549, 2 μg/mL; for inhibition at 20 µg/mL: A549, 20 μg/mL
Description: as §1

melting point [°C] | Compound | inhibition at 2 µg/mL (HT29) [%] | inhibition at 20 µg/mL (HT29) [%] | inhibition at 2 µg/mL (A549) [%] | inhibition at 20 µg/mL (A549) [%]
292.5 to 293 | CC1(C)C2CC[C@]3(C)[C@H](C(=O)C=C4[C@@H]5C[C@@](C)(C(=O)N6CCOCC6)CC[C@]5(C)CC[C@]43C)[C@@]2(C)CC[C@@H]1OC(=O)Nc1ccc(Cl)c(Cl)c1 (stereo partly drawn) [4a, 3β-(((3,4-dichlorophenyl)carbamoyl)oxy)-30-morpholino-olean-12-ene-11,30-dione] | 8.88 | 18.3 | 0 | 0
259.5 to 261.1 | COc1cccc(NC(=O)O[C@H]2CC[C@@]3(C)C(CC[C@]4(C)[C@@H]3C(=O)C=C3[C@@H]5C[C@@](C)(C(=O)O)CC[C@]5(C)CC[C@]34C)C2(C)C)c1 (stereo partly drawn) [3l, 3β-(((3-methoxyphenyl)carbamoyl)oxy)-11-oxo-olean-12-en-30-oic acid] | 6.06 | 47.4 | 9.74 | 53.7
305 to 306.8 | COc1cccc(NC(=O)O[C@H]2CC[C@@]3(C)C(CC[C@]4(C)[C@@H]3C(=O)C=C3[C@@H]5C[C@@](C)(C(=O)N6CCOCC6)CC[C@]5(C)CC[C@]34C)C2(C)C)c1 (stereo partly drawn) [4l, 3β-(((3-methoxyphenyl)carbamoyl)oxy)-30-morpholino-olean-12-ene-11,30-dione] | 13.6 | 16.6 | 0 | 0
– | CC1(C(=O)N2CCOCC2)CCC2(C)CCC3(C)C(=CC(=O)C4C5(C)CCC(OC(=O)Nc6ccc(Br)cc6)C(C)(C)C5CCC43C)C2C1 (stereo not drawn) [4g, 3β-(((4-bromophenyl)carbamoyl)oxy)-30-morpholino-olean-12-ene-11,30-dione] | 14.3 | 27.1 | 0 | 1.02
242.1 to 242.9 | CC1(C)C2CC[C@]3(C)[C@H](C(=O)C=C4[C@@H]5C[C@@](C)(C(=O)O)CC[C@]5(C)CC[C@]43C)[C@@]2(C)CC[C@@H]1OC(=O)Nc1ccc(C(F)(F)F)cc1 (stereo partly drawn) [3i, 3β-(((4-(trifluoromethyl)phenyl)carbamoyl)oxy)-11-oxo-olean-12-en-30-oic acid] | 19.4 | 90.1 | 15.9 | 87.5
235.1 to 236.7 | CC1(C)C2CC[C@]3(C)[C@H](C(=O)C=C4[C@@H]5C[C@@](C)(C(=O)O)CC[C@]5(C)CC[C@]43C)[C@@]2(C)CC[C@@H]1OC(=O)Nc1ccc(Cl)cc1 (stereo partly drawn) [3d, 3β-(((4-chlorophenyl)carbamoyl)oxy)-11-oxo-olean-12-en-30-oic acid] | 13.7 | 56.2 | 9.93 | 55.4
209.5 to 211.1 | CC1(C)C2CC[C@]3(C)[C@H](C(=O)C=C4[C@@H]5C[C@@](C)(C(=O)N6CCOCC6)CC[C@]5(C)CC[C@]43C)[C@@]2(C)CC[C@@H]1OC(=O)Nc1ccc(Cl)c(C(F)(F)F)c1 (stereo partly drawn) [4b, 3β-(((4-chloro-3-(trifluoromethyl)phenyl)carbamoyl)oxy)-30-morpholino-olean-12-ene-11,30-dione] | 14.4 | 32.8 | 0 | 0
308 to 310.1 | CC1(C(=O)N2CCOCC2)CCC2(C)CCC3(C)C(=CC(=O)C4C5(C)CCC(OC(=O)Nc6ccc(OC(F)(F)F)cc6)C(C)(C)C5CCC43C)C2C1 (stereo not drawn) [4n, 3β-(((4-(trifluoromethoxy)phenyl)carbamoyl)oxy)-30-morpholino-olean-12-ene-11,30-dione] | 7.12 | 40.2 | 0 | 0
267.9 to 268.9 | CC1(C)C2CC[C@]3(C)[C@H](C(=O)C=C4[C@@H]5C[C@@](C)(C(=O)O)CC[C@]5(C)CC[C@]43C)[C@@]2(C)CC[C@@H]1OC(=O)Nc1ccc(F)cc1 (stereo partly drawn) [3h, 3β-(((4-fluorophenyl)carbamoyl)oxy)-11-oxo-olean-12-en-30-oic acid] | 11.8 | 58.6 | 34.4 | 56.7
305 to 306.7 | COc1ccc(NC(=O)O[C@H]2CC[C@@]3(C)C(CC[C@]4(C)[C@@H]3C(=O)C=C3[C@@H]5C[C@@](C)(C(=O)N6CCOCC6)CC[C@]5(C)CC[C@]34C)C2(C)C)cc1 (stereo partly drawn) [4m, 3β-(((4-methoxyphenyl)carbamoyl)oxy)-30-morpholino-olean-12-ene-11,30-dione] | 15.7 | 23.2 | 0 | 8.11
298.4 to 299.7 | CC1(C(=O)N2CCOCC2)CCC2(C)CCC3(C)C(=CC(=O)C4C5(C)CCC(OC(=O)Nc6ccc(Cl)cc6)C(C)(C)C5CCC43C)C2C1 (stereo not drawn) [4d, 3β-(((4-chlorophenyl)carbamoyl)oxy)-30-morpholino-olean-12-ene-11,30-dione] | 16.3 | 53.7 | 0 | 54.4
291 to 292.5 | CC1(C)C2CC[C@]3(C)[C@H](C(=O)C=C4[C@@H]5C[C@@](C)(C(=O)N6CCOCC6)CC[C@]5(C)CC[C@]43C)[C@@]2(C)CC[C@@H]1OC(=O)Nc1cccc(Cl)c1 (stereo partly drawn) [4e, 3β-(((3-chlorophenyl)carbamoyl)oxy)-30-morpholino-olean-12-ene-11,30-dione] | 7.22 | 13.2 | 0 | 0
270.7 to 271.6 | Cc1ccc(NC(=O)O[C@H]2CC[C@@]3(C)C(CC[C@]4(C)[C@@H]3C(=O)C=C3[C@@H]5C[C@@](C)(C(=O)O)CC[C@]5(C)CC[C@]34C)C2(C)C)cc1Cl (stereo partly drawn) [3f, 3β-(((3-chloro-4-methylphenyl)carbamoyl)oxy)-11-oxo-olean-12-en-30-oic acid] | 15.6 | 89.2 | 11.4 | 80.2
293.7 to 295.6 | Cc1ccc(NC(=O)O[C@H]2CC[C@@]3(C)C(CC[C@]4(C)[C@@H]3C(=O)C=C3[C@@H]5C[C@@](C)(C(=O)N6CCOCC6)CC[C@]5(C)CC[C@]34C)C2(C)C)cc1Cl (stereo partly drawn) [4f, 3β-(((3-chloro-4-methylphenyl)carbamoyl)oxy)-30-morpholino-olean-12-ene-11,30-dione] | 7.1 | 18.4 | 0 | 0
264 to 264.8 | COc1ccc(NC(=O)O[C@H]2CC[C@@]3(C)C(CC[C@]4(C)[C@@H]3C(=O)C=C3[C@@H]5C[C@@](C)(C(=O)O)CC[C@]5(C)CC[C@]34C)C2(C)C)cc1 (stereo partly drawn) [3m, 3β-(((4-methoxyphenyl)carbamoyl)oxy)-11-oxo-olean-12-en-30-oic acid] | 12.8 | 32.3 | 11.7 | 47.5
305.1 to 311.4 | CC1(C(=O)N2CCOCC2)CCC2(C)CCC3(C)C(=CC(=O)C4C5(C)CCC(OC(=O)Nc6ccc(F)cc6)C(C)(C)C5CCC43C)C2C1 (stereo not drawn) [4h, 3β-(((4-fluorophenyl)carbamoyl)oxy)-30-morpholino-olean-12-ene-11,30-dione] | 14.8 | 30.4 | 0 | 8.54

Compound | melting point [°C] | inhibition at 2 µg/mL (HT29) [%] | inhibition at 20 µg/mL (HT29) [%] | inhibition at 2 µg/mL (A549) [%] | inhibition at 20 µg/mL (A549) [%]
CC1(C)C2CC[C@]3(C)[C@H](C(=O)C=C4[C@@H]5C[C@@](C)(C(=O)O)CC[C@]5(C)CC[C@]43C)[C@@]2(C)CC[C@@H]1OC(=O)CN1CCN(c2ccccn2)CC1 (stereo partly drawn) [6d, 3β-(2-(4-(pyridin-2-yl)piperazin-1-yl)acetoxy)-11-oxo-olean-12-en-30-oic acid] | 294 to 295.6 | 0 | 0 | 0 | 0
CC1(C)C2CC[C@]3(C)[C@H](C(=O)C=C4[C@@H]5C[C@@](C)(C(=O)O)CC[C@]5(C)CC[C@]43C)[C@@]2(C)CC[C@@H]1OC(=O)Cc1ccc(F)cc1 (stereo partly drawn) [7b, 3β-(2-(4-fluorophenyl)acetoxy)-11-oxo-olean-12-en-30-oic acid] | 305 to 307.7 | 44.1 | 59 | 15.3 | 31.2
CC1(C)C2CC[C@]3(C)[C@H](C(=O)C=C4[C@@H]5C[C@@](C)(C(=O)O)CC[C@]5(C)CC[C@]43C)[C@@]2(C)CC[C@@H]1OC(=O)CN1CCC(C(N)=O)CC1 (stereo partly drawn) [6b, 3β-(2-(4-carbamoylpiperidin-1-yl)acetoxy)-11-oxo-olean-12-en-30-oic acid] | 283.5 to 285 | 0 | 12.3 | 0 | 0
CN1CCN(CC(=O)O[C@H]2CC[C@@]3(C)C(CC[C@]4(C)[C@@H]3C(=O)C=C3[C@@H]5C[C@@](C)(C(=O)O)CC[C@]5(C)CC[C@]34C)C2(C)C)CC1 (stereo partly drawn) [6c, 3β-(2-(4-methylpiperazin-1-yl)acetoxy)-11-oxo-olean-12-en-30-oic acid] | 287.5 to 288.9 | 0 | 0 | 0 | 0
